≈ marks a conversion by molar mass, not a printed value. Calls of active or inactive are those of the source. No cut-off for these calls is given here.
Experiments:
[1] = Last AUC in mouse at 25 mg/kg, iv; type: ADME, organism-based; parameters: dose 25 mg/kg, route intravenous; details: in vivo
[2] = Solubility at pH 7.4; type: physicochemical; details: buffer
[3] = Half life in mouse at 25 mg/kg, iv; type: ADME, organism-based; parameters: dose 25 mg/kg, route intravenous; details: in vivo
[4] = Volume of distribution at steady state in mouse at 25 mg/kg, iv; type: ADME, organism-based; parameters: dose 25 mg/kg, route intravenous; details: in vivo, read-out: Vdss
[5] = target: T1, Nitric oxide synthase 3 (Homo sapiens) (UniProt P29474); assay: Inhibition of eNOS phosphorylation in human MDA-MB-361 cells by Western blotting; type: cell-based
T1 sequence (whole entry): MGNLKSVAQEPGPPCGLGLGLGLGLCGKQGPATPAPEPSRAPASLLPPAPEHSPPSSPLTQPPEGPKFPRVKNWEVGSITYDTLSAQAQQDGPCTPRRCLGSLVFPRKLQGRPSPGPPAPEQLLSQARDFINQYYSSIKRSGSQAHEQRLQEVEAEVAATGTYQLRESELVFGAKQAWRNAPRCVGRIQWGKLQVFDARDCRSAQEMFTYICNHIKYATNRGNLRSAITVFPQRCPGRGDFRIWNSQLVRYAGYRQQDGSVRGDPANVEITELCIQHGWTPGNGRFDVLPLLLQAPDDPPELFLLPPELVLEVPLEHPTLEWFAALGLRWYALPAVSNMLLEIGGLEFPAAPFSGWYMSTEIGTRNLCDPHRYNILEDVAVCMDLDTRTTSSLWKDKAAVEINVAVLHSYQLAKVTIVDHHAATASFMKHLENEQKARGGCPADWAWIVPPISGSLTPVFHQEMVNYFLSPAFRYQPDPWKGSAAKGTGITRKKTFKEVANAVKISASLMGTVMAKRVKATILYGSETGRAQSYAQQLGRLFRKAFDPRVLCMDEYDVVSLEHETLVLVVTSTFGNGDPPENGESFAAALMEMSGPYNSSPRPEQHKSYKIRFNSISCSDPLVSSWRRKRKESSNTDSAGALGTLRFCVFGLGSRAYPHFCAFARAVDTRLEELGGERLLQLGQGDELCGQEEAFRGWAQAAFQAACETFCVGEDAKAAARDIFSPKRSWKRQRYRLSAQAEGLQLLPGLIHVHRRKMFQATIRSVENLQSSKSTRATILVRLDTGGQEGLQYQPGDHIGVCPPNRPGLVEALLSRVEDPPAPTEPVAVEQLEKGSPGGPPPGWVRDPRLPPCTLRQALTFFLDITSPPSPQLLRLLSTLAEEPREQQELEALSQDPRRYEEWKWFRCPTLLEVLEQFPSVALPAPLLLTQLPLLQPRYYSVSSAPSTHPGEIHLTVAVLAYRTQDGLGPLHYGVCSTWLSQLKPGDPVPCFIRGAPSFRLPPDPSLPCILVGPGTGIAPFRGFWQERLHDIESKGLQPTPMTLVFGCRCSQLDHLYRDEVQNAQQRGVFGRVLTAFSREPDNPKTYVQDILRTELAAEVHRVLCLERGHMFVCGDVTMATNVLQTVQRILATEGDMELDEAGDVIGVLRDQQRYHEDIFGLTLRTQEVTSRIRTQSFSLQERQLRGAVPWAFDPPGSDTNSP

[6] = system: MDA-MB-361; assay: Induction of PARP cleavage in human MDA-MB-361 cells xenografted mouse model upto 18 hrs; type: functional, cell-based
[7] = system: Mus musculus; assay: Antitumor activity against human MDA-MB-361 cells xenografted mouse model assessed as maximum tolerated single dose; type: functional
[8] = target: Glycogen synthase kinase-3 (Homo sapiens) (UniProt P49840+P49841); assay: Inhibition of GSK3 kinase phosphorylation in human MDA-MB-361 cells by Western blotting; type: cell-based
Chain of Glycogen synthase kinase-3 (Homo sapiens) (P49840 whole entry, looked up): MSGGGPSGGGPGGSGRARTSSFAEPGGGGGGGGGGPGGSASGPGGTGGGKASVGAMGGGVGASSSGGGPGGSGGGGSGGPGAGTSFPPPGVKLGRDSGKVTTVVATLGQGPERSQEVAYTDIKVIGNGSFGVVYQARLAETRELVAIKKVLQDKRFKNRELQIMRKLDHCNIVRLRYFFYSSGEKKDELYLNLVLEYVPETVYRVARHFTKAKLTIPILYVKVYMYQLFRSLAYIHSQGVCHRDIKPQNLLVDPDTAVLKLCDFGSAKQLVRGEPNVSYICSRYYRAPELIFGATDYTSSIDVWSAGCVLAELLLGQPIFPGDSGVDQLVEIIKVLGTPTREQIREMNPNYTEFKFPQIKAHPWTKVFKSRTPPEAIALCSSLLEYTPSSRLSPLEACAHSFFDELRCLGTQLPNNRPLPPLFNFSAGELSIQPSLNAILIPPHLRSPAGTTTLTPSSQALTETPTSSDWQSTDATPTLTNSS
Chain of Glycogen synthase kinase-3 (Homo sapiens) (P49841 whole entry, looked up): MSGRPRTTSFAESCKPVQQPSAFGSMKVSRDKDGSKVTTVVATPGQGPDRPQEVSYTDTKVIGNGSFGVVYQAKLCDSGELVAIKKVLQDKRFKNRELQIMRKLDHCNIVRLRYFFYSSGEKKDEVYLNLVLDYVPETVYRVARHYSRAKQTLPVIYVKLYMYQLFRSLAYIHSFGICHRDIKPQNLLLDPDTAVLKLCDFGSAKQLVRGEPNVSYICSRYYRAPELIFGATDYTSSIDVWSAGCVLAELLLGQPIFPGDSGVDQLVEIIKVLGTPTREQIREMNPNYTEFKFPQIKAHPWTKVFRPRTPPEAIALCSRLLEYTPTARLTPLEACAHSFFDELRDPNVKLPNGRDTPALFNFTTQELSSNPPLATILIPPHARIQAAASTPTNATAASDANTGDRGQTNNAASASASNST

[9] = system: Mus musculus; assay: Antitumor activity against human MDA-MB-361 cells xenografted mouse model assessed as minimum effective dose; type: functional; details: read-out: MED
[10] = […] in mouse at 25 mg/kg, iv; type: ADME, organism-based; parameters: dose 25 mg/kg, route intravenous; details: in vivo
[11] = system: MDA-MB-361; assay: Antitumor activity against human MDA-MB-361 cells xenografted mouse model assessed as reduction in tumor volume at 20 mg/kg, iv on day 1, 5, 9; type: functional, organism-based; parameters: dose 20 mg/kg
[12] = Membrane permeability at pH 7.4 by PAMPA assay; type: ADME; details: read-out: permeability
[13] = Plasma clearance in mouse at 25 mg/kg, iv; type: ADME, organism-based; parameters: dose 25 mg/kg, route intravenous
[14] = target: RAC-alpha serine/threonine-protein kinase (Homo sapiens) (UniProt P31749); assay: Inhibition of Akt T308 phosphorylation in human MDA-MB-361 cells xenografted mouse model upto 36 hrs; type: cell-based
Chain of RAC-alpha serine/threonine-protein kinase (Homo sapiens) (P31749 whole entry): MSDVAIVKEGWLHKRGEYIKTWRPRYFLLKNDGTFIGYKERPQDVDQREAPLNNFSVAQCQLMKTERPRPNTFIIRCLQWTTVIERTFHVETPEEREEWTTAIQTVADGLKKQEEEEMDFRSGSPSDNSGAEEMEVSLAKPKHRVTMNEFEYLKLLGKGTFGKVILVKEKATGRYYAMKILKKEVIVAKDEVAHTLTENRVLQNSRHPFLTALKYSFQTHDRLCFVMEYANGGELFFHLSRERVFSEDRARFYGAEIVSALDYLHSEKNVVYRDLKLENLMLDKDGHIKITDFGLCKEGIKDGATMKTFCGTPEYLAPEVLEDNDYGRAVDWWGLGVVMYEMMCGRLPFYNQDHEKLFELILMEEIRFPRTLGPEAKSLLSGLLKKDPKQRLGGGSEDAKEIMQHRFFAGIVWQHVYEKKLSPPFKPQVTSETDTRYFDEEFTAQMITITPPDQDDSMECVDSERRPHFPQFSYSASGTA

[15] = system: NCI-H1975; assay: Antitumor activity against human NCI-H1975 cells xenografted orthotopic mouse model assessed as survival at 25 mg/kg once weekly for 7 weeks relative to untreated control; type: functional
[16] = target: RAC-alpha serine/threonine-protein kinase (Homo sapiens) (UniProt P31749); assay: Inhibition of Akt S473 phosphorylation in human MDA-MB-361 cells xenografted mouse model upto 36 hrs; type: cell-based
[17] = AUC (0 to infinity) in mouse at 25 mg/kg, iv; type: ADME, organism-based; parameters: dose 25 mg/kg, route intravenous, time infinity; details: plasma
[18] = target: Proline-rich AKT1 substrate 1 (Homo sapiens) (UniProt Q96B36); assay: Inhibition of PARS40 phosphorylation in human MDA-MB-361 cells by Western blotting; type: cell-based
[19] = target: Phosphatidylinositol 4,5-bisphosphate 3-kinase catalytic subunit alpha isoform (Homo sapiens, UniProt P42336)
Chain of Phosphatidylinositol 4,5-bisphosphate 3-kinase catalytic subunit alpha isoform (P42336 whole entry, canonical isoform): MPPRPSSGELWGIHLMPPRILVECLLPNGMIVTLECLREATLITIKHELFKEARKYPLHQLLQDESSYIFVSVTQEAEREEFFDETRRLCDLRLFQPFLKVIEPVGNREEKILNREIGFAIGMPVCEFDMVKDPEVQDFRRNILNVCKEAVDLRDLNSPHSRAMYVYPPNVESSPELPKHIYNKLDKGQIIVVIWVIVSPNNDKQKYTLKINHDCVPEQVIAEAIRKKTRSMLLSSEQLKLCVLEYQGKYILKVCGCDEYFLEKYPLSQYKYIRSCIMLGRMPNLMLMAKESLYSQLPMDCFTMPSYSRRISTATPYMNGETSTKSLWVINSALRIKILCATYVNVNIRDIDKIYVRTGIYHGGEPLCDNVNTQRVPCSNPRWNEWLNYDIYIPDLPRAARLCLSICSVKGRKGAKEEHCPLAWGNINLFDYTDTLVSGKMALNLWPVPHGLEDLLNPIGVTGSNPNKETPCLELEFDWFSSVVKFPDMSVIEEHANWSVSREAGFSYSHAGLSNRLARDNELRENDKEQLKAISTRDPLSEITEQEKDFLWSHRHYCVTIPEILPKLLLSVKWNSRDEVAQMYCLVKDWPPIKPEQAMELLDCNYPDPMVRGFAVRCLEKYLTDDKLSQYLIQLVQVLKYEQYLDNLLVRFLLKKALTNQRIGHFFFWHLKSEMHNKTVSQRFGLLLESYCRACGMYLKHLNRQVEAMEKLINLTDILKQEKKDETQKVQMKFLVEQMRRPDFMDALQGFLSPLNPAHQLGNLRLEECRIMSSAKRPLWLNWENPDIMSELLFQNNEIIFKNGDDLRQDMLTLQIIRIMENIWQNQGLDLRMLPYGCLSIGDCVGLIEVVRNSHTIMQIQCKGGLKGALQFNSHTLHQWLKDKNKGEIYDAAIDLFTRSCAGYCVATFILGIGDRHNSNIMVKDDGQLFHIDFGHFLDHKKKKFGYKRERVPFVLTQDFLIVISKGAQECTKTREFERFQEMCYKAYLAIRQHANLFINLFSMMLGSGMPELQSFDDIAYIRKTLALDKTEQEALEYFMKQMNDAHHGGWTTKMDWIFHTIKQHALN

[20] = target: Phosphatidylinositol 4,5-bisphosphate 3-kinase catalytic subunit gamma isoform (Homo sapiens, UniProt P48736)
Chain of Phosphatidylinositol 4,5-bisphosphate 3-kinase catalytic subunit gamma isoform (P48736 whole entry, canonical isoform): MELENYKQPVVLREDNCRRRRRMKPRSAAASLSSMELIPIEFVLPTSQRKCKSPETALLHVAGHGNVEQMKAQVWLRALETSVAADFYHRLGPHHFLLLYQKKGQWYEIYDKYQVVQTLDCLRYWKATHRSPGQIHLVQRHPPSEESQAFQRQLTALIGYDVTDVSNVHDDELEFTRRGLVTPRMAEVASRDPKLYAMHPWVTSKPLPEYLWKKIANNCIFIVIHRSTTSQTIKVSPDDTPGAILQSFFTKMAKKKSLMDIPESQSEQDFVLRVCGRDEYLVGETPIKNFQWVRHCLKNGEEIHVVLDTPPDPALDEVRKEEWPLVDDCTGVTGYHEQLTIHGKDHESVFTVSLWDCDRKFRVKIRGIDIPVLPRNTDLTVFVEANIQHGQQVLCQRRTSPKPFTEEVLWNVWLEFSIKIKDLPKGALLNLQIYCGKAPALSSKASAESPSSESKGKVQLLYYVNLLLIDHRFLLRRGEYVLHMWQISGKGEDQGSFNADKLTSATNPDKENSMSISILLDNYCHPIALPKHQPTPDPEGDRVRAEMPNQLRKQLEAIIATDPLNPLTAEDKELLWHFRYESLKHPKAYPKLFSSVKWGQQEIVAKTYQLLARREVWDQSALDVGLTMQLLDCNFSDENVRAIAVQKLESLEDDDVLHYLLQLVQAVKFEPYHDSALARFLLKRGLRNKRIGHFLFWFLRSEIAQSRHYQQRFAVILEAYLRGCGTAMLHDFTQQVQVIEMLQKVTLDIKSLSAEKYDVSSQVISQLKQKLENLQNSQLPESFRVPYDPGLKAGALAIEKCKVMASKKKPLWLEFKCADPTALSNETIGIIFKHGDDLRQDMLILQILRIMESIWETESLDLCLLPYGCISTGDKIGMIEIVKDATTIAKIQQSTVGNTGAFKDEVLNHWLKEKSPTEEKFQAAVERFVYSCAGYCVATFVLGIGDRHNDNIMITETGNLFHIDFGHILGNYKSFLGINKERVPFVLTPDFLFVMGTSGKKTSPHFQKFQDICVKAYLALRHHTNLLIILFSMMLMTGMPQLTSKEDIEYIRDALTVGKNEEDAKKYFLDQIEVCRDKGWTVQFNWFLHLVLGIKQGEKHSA

[21] = target: Serine/threonine-protein kinase mTOR (Homo sapiens, UniProt P42345)
[22] = cells; details: Homo sapiens, PC3MM2
[23] = system: MDA-MB-361; assay: cells; details: Homo sapiens

SMILES	solubility [2]	Papp [12]	IC50 [19]	IC50 [20]	IC50 [21]	IC50 [22]	IC50 [23]	further results
CN(C)C1CCN(C(=O)c2ccc(NC(=O)Nc3ccc(-c4nc(N5CCOCC5)nc(N5CCOCC5)n4)cc3)cc2)CC1 [GEDATOLISIB]	14 µg/mL (≈ 22.7 µM)	0.1 ×10⁻⁶ cm/s	–	–	–	–	–	AUC [1]: 42600 ng·h/mL; half-life [3]: 864 min; Vd [4]: 7.2 L/kg; Activity [5]: Active; Activity [6]: Active; MTD [7]: 30 mg/kg; Activity [8]: Active; minimal effective dose [9]: 3 mg/kg; MRT [10]: 16.7 h; Activity [11]: Active; clearance [13]: 7 mL/min/kg; Activity [14]: Active; Activity [15]: 90%; Activity [16]: Active; AUC(0-inf) [17]: 57900 ng·h/mL; Activity [18]: Active
CNC(=O)c1ccc(NC(=O)Nc2ccc(-c3nc(N4CCOCC4)nc(N4CCOCC4)n3)cc2)cc1	1 µg/mL (≈ 1.93 µM)	–	–	–	–	24 nM	–	–
O=C(Nc1ccc(C(=O)N2CCC(N3CCCC3)CC2)cc1)Nc1ccc(-c2nc(N3CCOCC3)nc(N3CCOCC3)n2)cc1	33.5 µg/mL (≈ 52.2 µM)	–	0.7 nM	10 nM	0.8 nM	8.3 nM	3 nM	–
O=C(Nc1ccc(CCO)cc1)Nc1ccc(-c2nc(N3CCOCC3)nc(N3CCOCC3)n2)cc1	–	–	1.5 nM	21.5 nM	1.8 nM	39 nM	36 nM	–
CN(C)CCN(C)C(=O)c1ccc(NC(=O)Nc2ccc(-c3nc(N4CCOCC4)nc(N4CCOCC4)n3)cc2)cc1.Cl	9 µg/mL	0.03 ×10⁻⁶ cm/s	–	9 nM	0.6 nM	18.3 nM	9.8 nM	–
O=C(Nc1ccc(CO)cc1)Nc1ccc(-c2nc(N3CCOCC3)nc(N3CCOCC3)n2)cc1	–	0.2 ×10⁻⁶ cm/s	–	–	–	30 nM	30 nM	–
CN1CCN(C(=O)c2ccc(NC(=O)Nc3ccc(-c4nc(N5CCOCC5)nc(N5CCOCC5)n4)cc3)cc2)CC1	–	–	0.5 nM	9 nM	1.4 nM	13 nM	10 nM	–
O=C(Nc1ccc(Cl)cc1)Nc1ccc(-c2nc(N3CCOCC3)nc(N3CCOCC3)n2)cc1	1 µg/mL (≈ 2.02 µM)	–	–	–	6.7 nM	293 nM	407 nM	–
O=C(Nc1ccc(F)cc1)Nc1ccc(-c2nc(N3CCOCC3)nc(N3CCOCC3)n2)cc1	–	1 ×10⁻⁶ cm/s	6.5 nM	–	3.9 nM	193 nM	118 nM	–
O=C(Nc1ccc(C(=O)O)cc1)Nc1ccc(-c2nc(N3CCOCC3)nc(N3CCOCC3)n2)cc1	52 µg/mL (≈ 103 µM)	–	–	–	1.5 nM	28 nM	816 nM	–
COC(=O)c1ccc(NC(=O)Nc2ccc(-c3nc(N4CCOCC4)nc(N4CCOCC4)n3)cc2)cc1	1 µg/mL (≈ 1.92 µM)	0.6 ×10⁻⁶ cm/s	–	–	–	45 nM	115 nM	–
CN(C)CCNC(=O)c1ccc(NC(=O)Nc2ccc(-c3nc(N4CCOCC4)nc(N4CCOCC4)n3)cc2)cc1	7 µg/mL (≈ 12.2 µM)	0.1 ×10⁻⁶ cm/s	0.4 nM	8 nM	0.5 nM	11 nM	3 nM	–
O=C(Nc1ccc(-c2nc(N3CCOCC3)nc(N3CCOCC3)n2)cc1)Nc1ccc(F)cc1F	1 µg/mL (≈ 2.01 µM)	–	–	–	–	5630 nM	794 nM	–
O=C(Nc1ccc(C(=O)N2CCC(N3CCCCC3)CC2)cc1)Nc1ccc(-c2nc(N3CCOCC3)nc(N3CCOCC3)n2)cc1	31 µg/mL (≈ 47.3 µM)	–	–	–	0.7 nM	7 nM	3 nM	–

Second part, led by results:

solubility [2]	Papp [12]	IC50 [19]	IC50 [20]	IC50 [21]	IC50 [22]	IC50 [23]	SMILES	further results
100 µg/mL (≈ 213 µM)	0.01 ×10⁻⁶ cm/s	1520 nM	7470 nM	460 nM	–	–	O=C(Nc1ccc(-c2nc(N3CCOCC3)nc(N3CCOCC3)n2)cc1)NN1CCCCC1	–
–	1.4 ×10⁻⁶ cm/s	–	–	1.2 nM	43 nM	45 nM	O=C(Nc1ccncc1)Nc1ccc(-c2nc(N3CCOCC3)nc(N3CCOCC3)n2)cc1	–
–	–	350 nM	789 nM	11.3 nM	–	–	CNC(=O)Nc1ccc(-c2nc(N3CCOCC3)nc(N3CCOCC3)n2)cc1	–
1 µg/mL (≈ 2.16 µM)	–	–	–	–	21 nM	38 nM	O=C(Nc1ccc(-c2nc(N3CCOCC3)nc(N3CCOCC3)n2)cc1)Nc1ccnnc1	–
1 µg/mL (≈ 2.42 µM)	0.7 ×10⁻⁶ cm/s	–	–	10 nM	–	–	CCNC(=O)Nc1ccc(-c2nc(N3CCOCC3)nc(N3CCOCC3)n2)cc1	–
2 µg/mL (≈ 4.28 µM)	2.4 ×10⁻⁶ cm/s	–	–	–	218 nM	–	O=C(Nc1ccc(-c2nc(N3CCOCC3)nc(N3CCOCC3)n2)cc1)Nc1cccs1	–
–	0.5 ×10⁻⁶ cm/s	1.7 nM	–	1.2 nM	92 nM	–	O=C(Nc1ccc(-c2nc(N3CCOCC3)nc(N3CCOCC3)n2)cc1)Nc1cccnc1	–
–	5.6 ×10⁻⁶ cm/s	–	–	–	364 nM	200 nM	Cc1ccc(NC(=O)Nc2ccc(-c3nc(N4CCOCC4)nc(N4CCOCC4)n3)cc2)cc1	–
–	0.2 ×10⁻⁶ cm/s	–	–	3.9 nM	107 nM	56 nM	O=C(Nc1ccccc1)Nc1ccc(-c2nc(N3CCOCC3)nc(N3CCOCC3)n2)cc1	–
